Test systems include SNB-75; OVCAR-4; Malme-3M; NCI-H460; NCI-H226; UACC-257; TK-10; SK-OV-3; MDA-N; RPMI-8226; BT-549; DU-145; Hs-578T; U-251; SNB-19; HL-60; OVCAR-3; SN12C; HOP-92; HOP-18.
What all share (assay): inhibition of tumour cell growth, NCI panel, 48 h

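Step 1: Grow cells in 96-well plates. Step 2: Expose to compound for 48 hours at 5 concentrations. Step 3: Interpolate endpoints linearly; if unreached, use highest concentration. GI50 = concentration required for 50% inhibition of growth.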 Active and inactive are the calls of the source. Rule as the data show it: active = GI50 up to about 1.1 µM and inactive = higher. Residues, ends and D or L forms follow the SMILES beside them.

For the compound `COc1ccc(-c2cc(-c3ccccc3)n(C3OCC(OC(C)=O)C(OC(C)=O)C3OC(C)=O)c(=S)c2C#N)cc1` (configuration not stated), the GI50 is > 100 µM (inactive) in the assay on SNB-75; > 100 µM (inactive) with OVCAR-4; > 100 µM (inactive) with Malme-3M; 9.42 µM (inactive) in the assay on NCI-H460; 20 µM (inactive) in the assay with NCI-H226; > 100 µM (inactive) with UACC-257. Besides, the GI50 in the assay on TK-10 was 63 µM (inactive); in the assay on SK-OV-3, 66.1 µM (inactive); with MDA-N, 54.5 µM (inactive); in the assay with RPMI-8226, > 100 µM (inactive); in the assay with BT-549 it was > 100 µM (inactive); in the assay with DU-145, > 100 µM (inactive). Also, the GI50 in the assay on Hs-578T was 15.3 µM (inactive); in the assay on U-251, > 100 µM (inactive); in the assay with SNB-19, > 100 µM (inactive); in the assay on HL-60 it was > 100 µM (inactive); in the assay with OVCAR-3, > 100 µM (inactive); in the assay with SN12C it was > 100 µM (inactive). Besides, the GI50 in the assay with HOP-92 was 16 µM (inactive).
With `CCOC(=O)c1nc2ccc([N+](=O)[O-])cc2c2c1CCO2`, the GI50 is 41.3 µM (inactive) with SNB-75; > 100 µM (inactive) in the assay with OVCAR-4; > 100 µM (inactive) with Malme-3M; 71 µM (inactive) with HOP-18; > 100 µM (inactive) with NCI-H460; > 100 µM (inactive) in the assay on NCI-H226. The GI50 in the assay with UACC-257, in the assay on TK-10, in the assay on SK-OV-3, in the assay with U-251, in the assay on SNB-19 and in the assay on HL-60 was > 100 µM (inactive) throughout. In addition, the GI50 with OVCAR-3 and in the assay on SN12C was > 100 µM (inactive) each time.
Consider `O=C1OC(c2ccccc2)=N/C1=C\c1c(O)cc(O)cc1O`, for which the GI50 in the assay on SNB-75, in the assay on OVCAR-4, with Malme-3M, in the assay with HOP-18, in the assay with UACC-257 and in the assay on TK-10 was > 100 µM (inactive) each time. Also, the GI50 in the assay with SK-OV-3, in the assay on RPMI-8226, with U-251, in the assay on SNB-19, with OVCAR-3 and with SN12C was > 100 µM (inactive) each time. Further, the GI50 in the assay on HOP-92 was > 100 µM (inactive).
Take `O=C1CCC(=O)C(C(=O)CCC(=O)Nc2ccc(Cl)cc2)C1` (configuration not stated): the GI50 in the assay with OVCAR-4, with Malme-3M, in the assay with HOP-18, in the assay on NCI-H460, in the assay on NCI-H226 and in the assay with UACC-257 was > 100 µM (inactive) throughout. Further, the GI50 in the assay on TK-10, in the assay with SK-OV-3, in the assay with RPMI-8226, with U-251, in the assay on SNB-19 and with HL-60 was > 100 µM (inactive) each time. Besides, the GI50 in the assay with OVCAR-3, in the assay on SN12C and with HOP-92 was > 100 µM (inactive) in each case.
For `Oc1cc(Cl)ncn1`, the GI50 with SNB-75, with OVCAR-4, with Malme-3M, in the assay on HOP-18, in the assay with NCI-H460 and in the assay with NCI-H226 was > 100 µM (inactive) in each case. Further, the GI50 in the assay on UACC-257, in the assay on TK-10, with SK-OV-3, in the assay with RPMI-8226, in the assay on U-251 and in the assay with SNB-19 was > 100 µM (inactive) in each case. Further, the GI50 in the assay with HL-60, with OVCAR-3 and with SN12C was > 100 µM (inactive) each time.
Turning to `CC1=C2[C@H](c3ccccc3)C3C=CC2(c2ccccc23)N(C(=O)C(c2ccccc2)c2ccccc2)C1=O` (some centres not stated), the GI50 with SNB-75, in the assay with OVCAR-4, with Malme-3M, in the assay on HOP-18, with NCI-H460 and in the assay on UACC-257 was > 100 µM (inactive) in each case. Besides, the GI50 is > 100 µM (inactive) in the assay on TK-10; > 100 µM (inactive) in the assay with SK-OV-3; > 100 µM (inactive) in the assay on U-251; > 100 µM (inactive) with SNB-19; 41.3 µM (inactive) with HL-60; > 100 µM (inactive) in the assay with OVCAR-3. Also, the GI50 in the assay with SN12C and in the assay on HOP-92 was > 100 µM (inactive) each time.
As for `CCC(=C(C#N)C#N)c1cc(OC)c(OC)c(OC)c1`, the GI50 with OVCAR-4, in the assay on Malme-3M, in the assay with HOP-18, in the assay with NCI-H460, with NCI-H226 and in the assay on TK-10 was > 100 µM (inactive) each time. Moreover, the GI50 in the assay with SK-OV-3 is > 100 µM (inactive); with RPMI-8226 it was 15.6 µM (inactive); with U-251 it was > 100 µM (inactive); in the assay with SNB-19, > 100 µM (inactive); with HL-60 it was 22.1 µM (inactive); with OVCAR-3, > 100 µM (inactive). The figures for the GI50 with SN12C and in the assay on HOP-92 were > 100 µM (inactive) and 95.1 µM (inactive), respectively.
Regarding `COc1cc2c(cc1OC)C(C(c1ccccc1)c1ccccc1)N(C)CC2` (configuration not stated), the GI50 in the assay on SNB-75 is 49.1 µM (inactive); in the assay on OVCAR-4 it was > 94 µM (inactive); in the assay on Malme-3M it was 23.8 µM (inactive); in the assay with HOP-18, > 100 µM (inactive); in the assay on NCI-H460, > 89.1 µM (inactive); in the assay on NCI-H226 it was > 92.9 µM (inactive). Also, the GI50 in the assay with UACC-257 is 32.9 µM (inactive); with SK-OV-3, 79.3 µM (inactive); in the assay on RPMI-8226 it was 36.6 µM (inactive); in the assay with U-251 it was 61.9 µM (inactive); in the assay on SNB-19, > 100 µM (inactive); in the assay with HL-60 it was 40.6 µM (inactive). For the same compound, the GI50 is > 84.7 µM (inactive) with OVCAR-3, > 100 µM (inactive) in the assay on SN12C and 29.2 µM (inactive) in the assay with HOP-92.
In the case of `COc1ccc2c(c1)[n+]([O-])c(-c1ccc(C)cc1)c(N)[n+]2[O-]`, the GI50 with SNB-75 was 45.1 µM (inactive); with OVCAR-4 it was 88.7 µM (inactive); in the assay on Malme-3M, 76.2 µM (inactive); in the assay with HOP-18, > 100 µM (inactive); in the assay on NCI-H460, 38.3 µM (inactive); in the assay with NCI-H226 it was > 100 µM (inactive). In addition, the GI50 in the assay on UACC-257 was 23.6 µM (inactive); with SK-OV-3, > 100 µM (inactive); in the assay on RPMI-8226, 75.5 µM (inactive); in the assay on U-251 it was 54.7 µM (inactive); in the assay with SNB-19, > 100 µM (inactive); in the assay on HL-60, 43.9 µM (inactive). Moreover, the GI50 in the assay on OVCAR-3 is 31 µM (inactive); in the assay on SN12C, > 100 µM (inactive); in the assay on HOP-92 it was > 100 µM (inactive).
With `O=C1C=C2SC3C[C@@]24CC1[N+]1=c2c4c(c(O)c4c2=C(C=N4)CC1)N3`, the GI50 in the assay on SNB-75 was 4.61 µM (inactive); in the assay with OVCAR-4 it was 1.66 µM (inactive); with Malme-3M it was 1.85 µM (inactive); with HOP-18, 6.49 µM (inactive); in the assay with NCI-H460, 3.2 µM (inactive); in the assay with NCI-H226 it was 2.29 µM (inactive). The GI50 with UACC-257 is 1.7 µM (inactive); in the assay on SK-OV-3 it was 2.96 µM (inactive); in the assay on RPMI-8226, 2.08 µM (inactive); in the assay on U-251, 1.9 µM (inactive); in the assay on SNB-19, 5.31 µM (inactive); with HL-60, 1.46 µM (inactive). Further, the GI50 is 0.938 µM (active) with OVCAR-3, 2.67 µM (inactive) in the assay on SN12C and > 100 µM (inactive) with HOP-92.
On to `CCC(C)C(NC(=O)C(CCCCN)NC(=O)C(NC(=O)C(CCC(N)=O)NC(=O)C(N)CCCNC(=N)N)C(C)CC)C(=O)NC(Cc1c[nH]c2ccccc12)C(=O)NC(Cc1ccccc1)C(=O)NC(CCC(N)=O)C(=O)NC(CC(N)=O)C(=O)NC(CCCNC(=N)N)C(=O)NC(CCCNC(=N)N)C(=O)NC(CCSC)C(=O)NC(CCCCN)C(=O)NC(Cc1c[nH]c2ccccc12)C(=O)NC(CCCCN)C(=O)NC(CCCCN)C(=O)N1CCCC1C(=O)NC(C)C(=O)NC(CCCCN)C(=O)NC(CCCNC(=N)N)C(=O)NC(CCCCN)C(=O)NC(CC(C)C)C(=O)NC(Cc1ccccc1)C(=O)NCC(=O)O` (configuration not stated) (H-RQIKIWFQNRRMKWKKPAKRKLFG-OH; configuration not given here), for which the GI50 in the assay with SNB-75 was > 25 µM (inactive); in the assay with OVCAR-4, > 25 µM (inactive); in the assay on Malme-3M it was 6.75 µM (inactive); in the assay on NCI-H460, 24.7 µM (inactive); in the assay on NCI-H226, > 25 µM (inactive); with UACC-257, 21.9 µM (inactive). Moreover, the GI50 in the assay on TK-10 is > 25 µM (inactive); with SK-OV-3, > 25 µM (inactive); with MDA-N, > 25 µM (inactive); in the assay with RPMI-8226 it was 5.93 µM (inactive); in the assay on BT-549, > 25 µM (inactive); in the assay on DU-145 it was > 25 µM (inactive). For the same compound, the GI50 in the assay with Hs-578T is 21.1 µM (inactive); in the assay with U-251, 17 µM (inactive); in the assay with SNB-19, > 25 µM (inactive); with HL-60, 6.93 µM (inactive); in the assay with OVCAR-3, > 25 µM (inactive); with SN12C, > 25 µM (inactive). Further, the GI50 with HOP-92 is 9.64 µM (inactive).
Regarding `CC(C)=CCC[C@@H](C)C1=CC(=O)C(C)=C(O)C1=O` [ISOPEREZONE], the GI50 in the assay on SNB-75 is 4.5 µM (inactive); with OVCAR-4 it was 7.1 µM (inactive); in the assay on Malme-3M, 10.2 µM (inactive); in the assay with NCI-H460, 16.3 µM (inactive); with NCI-H226, 7.19 µM (inactive); in the assay on UACC-257, 10.9 µM (inactive). The GI50 was 5.11 µM (inactive) in the assay on TK-10; 17.9 µM (inactive) in the assay with SK-OV-3; 4.81 µM (inactive) in the assay with MDA-N; 0.445 µM (active) in the assay on RPMI-8226; 5.78 µM (inactive) in the assay with BT-549; 6.08 µM (inactive) in the assay with DU-145. Moreover, the GI50 with Hs-578T is 6.43 µM (inactive); in the assay on U-251, 8.79 µM (inactive); in the assay on SNB-19 it was 15.9 µM (inactive); with HL-60, 0.3 µM (active); with OVCAR-3, 4.19 µM (inactive); in the assay with SN12C, 10.7 µM (inactive). Further, the GI50 in the assay on HOP-92 was 2.5 µM (inactive).

These data come from ChEMBL document CHEMBL1201862, “PubChem BioAssay data set” (2004).
